{"source": "paper PMC11802874", "about": "“The hypolipidemic effect of MI-883, the combined CAR agonist/ PXR antagonist, in diet-induced hypercholesterolemia model” (Nature Communications, 2025)", "assay": "Pharmacokinetic study after single dose in C57BL/6N mice", "format": "in vivo, mouse", "method": "Pharmacokinetic study of MI-883 in C57BL/6N mice (9–10 weeks old, body weight 20.8 to 24.5 g and average body weight across all groups 22.7 g, SD = 1.1 g) were performed following peroral (p.o.) and intraperitoneal (i.p.) administrations. […] There was also a control group of 4 animals per route. The levels of the parent compound MI-883 were determined by LC-MS/MS in the blood plasma, brain, kidney, liver, muscle (Leg triceps), bile, small intestine, colon, and adipose tissues over time after a single dose of 10 mg/kg. Mice were injected i.p. with 2,2,2-tribromoethanol at a dose of 150 mg/kg prior to drawing the blood. Blood collection was performed from the orbital sinus in BD microtainers tubes containing K2EDTA. Animals were sacrificed by cervical dislocation after the blood samples collection. After this, samples of brain, kidney, liver, muscle (Leg triceps), small intestine, colon, and adipose tissue were collected. Bile samples were taken from the gallbladder of mice. Urine and feces samples were collected using metabolic cages over the course of 1440 min (24 h) after compound administration. All samples were immediately processed, flash-frozen, and stored at –70 °C until subsequent analysis. Detection of the presence of potential metabolites (2-chloro-5-((4-(2-(4-chlorophenyl)-7-fluoroimidazo[1,2-a]pyridin-3-yl)-1H-1,2,3-triazol-1-yl)methyl)-N-methylbenzamide or 2-(4-chlorophenyl)-7-fluoro-3-(1H-1,2,3-triazol-4-yl)imidazo[1,2-a]pyridine) in plasma and tissues was performed. MI-883 was applied in 5%DMSO – 5%PEG300 – 90%corn oil formulation with a final concentration of the compound, 2 mg/ml. Animal treatment and sample preparation were conducted by the Animal Laboratory personnel at Enamine/Bienta.\nPlasma samples (50 μl) were mixed with 200 μl of IS400 solution. After mixing by pipetting and centrifuging for 4 min at 6000 rpm, 2 μl of each supernatant was injected into the LC-MS/MS system. Solution of compound IS-19851 (400 ng/ml in acetonitrile-methanol mixture 1:1, v/v) was used as internal standard (IS400) for quantification of MI-883 in blood plasma, liver, kidney, muscle (Leg triceps), small intestine, and colon samples. Liver, kidney, muscle (Leg triceps), colon, and small intestine samples (weight 100 mg ±1 mg) were disintegrated in 500 μl of IS400 using zirconium oxide beads (120 mg ± 5 mg) in The Bullet Blender® homogenizer for 1–3 min at speed 8–12. After this, the samples were centrifuged for 3 min at 14,000 rpm, and 1 μl of each supernatant was injected into the LC-MS/MS system.\nBrain and adipose tissue samples (weight 100 mg ± 1 mg) were dispersed in 500 μl of IS400(80) using zirconium oxide beads (120 mg ± 5 mg) in The Bullet Blender® homogenizer for 30 s at speed 8. After this, the samples were centrifuged for 4 min at 14,000 rpm, and 1 μl of each supernatant was injected into the LC-MS/MS system. Solution of compound IS-19851 (400 ng/ml in water-acetonitrile-methanol mixture, 2:4:4, v/v/v) was used as internal standard (IS400(80)) for quantification of MI-883 in the brain, adipose tissue, urine, and bile samples. Urine (cumulative) and bile samples were mixed with IS400(80) solution (1:20, v/v). After mixing by pipetting and centrifuging for 4 min at 6000 rpm, 0.5 μl of each supernatant was injected into the LC-MS/MS system. Cumulative feces samples (114 mg–249 mg) were transferred to BMT-20-S tubes with 4 stainless steel balls, mixed with 20 volumes of IS400(80) solution, and dispersed using ULTRA-TURRAX Tube Drive for 1 min at 3000 rpm within the 30 min thrice. After dispersing and centrifuging for 2 min at 14,000 rpm, 0.5 μl of each supernatant was injected into the LC-MS/MS system.\nThe concentration of MI-883 in plasma and tissues was determined using a high-performance liquid chromatography/tandem mass spectrometry (HPLC-MS/MS) method. […]", "key": {"[1]": {"conditions": "male, C57BL/6N, mouse, po, Liver, 10 mg/kg"}, "[2]": {"conditions": "male, C57BL/6N, mouse, po, Plasma, 10 mg/kg"}}, "data": [{"smiles": "NC(=O)c1cc(Cn2cc(-c3c(-c4ccc(Cl)cc4)nc4cc(F)ccn34)nn2)ccc1Cl", "note": "[MI-883, 2-chloro-5-((4-(2-(4-chlorophenyl)-7-fluoroimidazo[1,2-a]pyridin-3-yl)-1H-1,2,3-triazol-1-yl)methyl)benzamide]", "values": [{"measurement": "Tmax", "setting": "[1]", "value": 30, "unit": "min"}, {"measurement": "half-life", "setting": "[1]", "value": 211, "unit": "min"}, {"measurement": "Cmax", "setting": "[2]", "value": 9290, "unit": "ng/mL"}, {"measurement": "Tmax", "setting": "[2]", "value": 30, "unit": "min"}, {"measurement": "half-life", "setting": "[2]", "value": 170, "unit": "min"}, {"measurement": "Tmax", "setting": "male, mouse, ip, Plasma, 10 mg/kg, C57BL/6N mice", "value": 30, "unit": "min"}, {"measurement": "PK of MI-883: MI-883 p.o. adipose tis.", "setting": "p.o., time 10", "value": 211}, {"measurement": "PK of MI-883: MI-883 p.o. adipose tis.", "setting": "p.o., time 120", "value": 5811}, {"measurement": "PK of MI-883: MI-883 p.o. adipose tis.", "setting": "p.o., time 240", "value": 980}, {"measurement": "PK of MI-883: MI-883 p.o. adipose tis.", "setting": "p.o., time 480", "value": 1023}, {"measurement": "PK of MI-883: MI-883 p.o. adipose tis.", "setting": "p.o., time 720", "value": 1016}, {"measurement": "PK of MI-883: MI-883 p.o. adipose tis.", "setting": "p.o., time 1440", "value": 8}, {"measurement": "PK of MI-883: MI-883 p.o. bile", "setting": "p.o., time 10", "value": 560}, {"measurement": "PK of MI-883: MI-883 p.o. bile", "setting": "p.o., time 120", "value": 5663}, {"measurement": "PK of MI-883: MI-883 p.o. bile", "setting": "p.o., time 240", "value": 9638}, {"measurement": "PK of MI-883: MI-883 p.o. bile", "setting": "p.o., time 480", "value": 9739}, {"measurement": "PK of MI-883: MI-883 p.o. bile", "setting": "p.o., time 720", "value": 23456}, {"measurement": "PK of MI-883: MI-883 p.o. bile", "setting": "p.o., time 1440", "value": 192}, {"measurement": "PK of MI-883: MI-883 p.o. brain", "setting": "p.o., time 10", "value": 8}, {"measurement": "PK of MI-883: MI-883 p.o. brain", "setting": "p.o., time 120", "value": 300}, {"measurement": "PK of MI-883: MI-883 p.o. brain", "setting": "p.o., time 240", "value": 45}, {"measurement": "PK of MI-883: MI-883 p.o. brain", "setting": "p.o., time 720", "value": 55}, {"measurement": "PK of MI-883: MI-883 p.o. colon", "setting": "p.o., time 10", "value": 2929}, {"measurement": "PK of MI-883: MI-883 p.o. colon", "setting": "p.o., time 120", "value": 4345}, {"measurement": "PK of MI-883: MI-883 p.o. colon", "setting": "p.o., time 240", "value": 1191}, {"measurement": "PK of MI-883: MI-883 p.o. colon", "setting": "p.o., time 480", "value": 1428}, {"measurement": "PK of MI-883: MI-883 p.o. colon", "setting": "p.o., time 720", "value": 1386}, {"measurement": "PK of MI-883: MI-883 p.o. colon", "setting": "p.o., time 1440", "value": 15}, {"measurement": "PK of MI-883: MI-883 p.o. feces", "setting": "p.o., feces, time 1440", "value": 174, "unit": "ng"}, {"measurement": "PK of MI-883: MI-883 p.o. kidney", "setting": "p.o., time 10", "value": 573}, {"measurement": "PK of MI-883: MI-883 p.o. kidney", "setting": "p.o., time 120", "value": 9000}, {"measurement": "PK of MI-883: MI-883 p.o. kidney", "setting": "p.o., time 240", "value": 2409}, {"measurement": "PK of MI-883: MI-883 p.o. kidney", "setting": "p.o., time 480", "value": 2347}, {"measurement": "PK of MI-883: MI-883 p.o. kidney", "setting": "p.o., time 720", "value": 2408}, {"measurement": "PK of MI-883: MI-883 p.o. kidney", "setting": "p.o., time 1440", "value": 40}, {"measurement": "PK of MI-883: MI-883 p.o. liver", "setting": "p.o., time 10", "value": 1972}, {"measurement": "PK of MI-883: MI-883 p.o. liver", "setting": "p.o., time 120", "value": 14919}, {"measurement": "PK of MI-883: MI-883 p.o. liver", "setting": "p.o., time 240", "value": 5297}, {"measurement": "PK of MI-883: MI-883 p.o. liver", "setting": "p.o., time 480", "value": 5137}, {"measurement": "PK of MI-883: MI-883 p.o. liver", "setting": "p.o., time 720", "value": 5549}, {"measurement": "PK of MI-883: MI-883 p.o. liver", "setting": "p.o., time 1440", "value": 102}, {"measurement": "PK of MI-883: MI-883 p.o. muscule", "setting": "p.o., time 10", "value": 98}, {"measurement": "PK of MI-883: MI-883 p.o. muscule", "setting": "p.o., time 120", "value": 2725}, {"measurement": "PK of MI-883: MI-883 p.o. muscule", "setting": "p.o., time 240", "value": 421}, {"measurement": "PK of MI-883: MI-883 p.o. muscule", "setting": "p.o., time 480", "value": 488}, {"measurement": "PK of MI-883: MI-883 p.o. muscule", "setting": "p.o., time 720", "value": 543}, {"measurement": "PK of MI-883: MI-883 p.o. small int.", "setting": "p.o., time 10", "value": 5277}, {"measurement": "PK of MI-883: MI-883 p.o. small int.", "setting": "p.o., time 120", "value": 9143}, {"measurement": "PK of MI-883: MI-883 p.o. small int.", "setting": "p.o., time 240", "value": 2579}, {"measurement": "PK of MI-883: MI-883 p.o. small int.", "setting": "p.o., time 480", "value": 1398}, {"measurement": "PK of MI-883: MI-883 p.o. small int.", "setting": "p.o., time 720", "value": 2156}, {"measurement": "PK of MI-883: MI-883 p.o. small int.", "setting": "p.o., time 1440", "value": 21}, {"measurement": "PK of MI-883: MI-883 p.o.", "setting": "p.o., time 10", "value": 440}, {"measurement": "PK of MI-883: MI-883 p.o.", "setting": "p.o., time 120", "value": 9288}, {"measurement": "PK of MI-883: MI-883 p.o.", "setting": "p.o., time 240", "value": 1645}, {"measurement": "PK of MI-883: MI-883 p.o.", "setting": "p.o., time 480", "value": 1502}, {"measurement": "PK of MI-883: MI-883 p.o.", "setting": "p.o., time 720", "value": 1788}, {"measurement": "PK of MI-883: MI-883 p.o.", "setting": "p.o., time 1440", "value": 15}, {"measurement": "time with liver concentration above 1000 ng/g", "setting": "single dose of 10 mg/kg", "value": "more than 18 hours"}, {"measurement": "concentration in the liver lysate", "setting": "single dose of 10 mg/kg p.o., male C57BL/6N mice", "value": "greater than 1000 ng/g"}]}]}
